Assay [1] relates to Metamycoplasma hominis. Kind of assay: Antimicrobial activity against Mycoplasma hominis by agar dilution method. In kind it is functional.
In assay [2] the test system is Mycoplasmoides pneumoniae. Kind of assay: Antimicrobial activity against Mycoplasma pneumoniae by agar dilution method. In kind it is functional.

In brackets after ≈: the same amount, converted by molar mass.

In assay [1], `COc1c(N2CCNC(C)C2)c(F)cc2c(=O)c(C(=O)O)cn(C3CC3)c12` (stereo not given) [GATIFLOXACIN] displayed an MIC50 of 0.125 µg/mL (≈ 0.333 µM) and an MIC90 of 0.125 µg/mL (≈ 0.333 µM). In assay [2], the MIC50 was found to be 0.125 µg/mL (≈ 0.333 µM) and the MIC90 was found to be 0.125 µg/mL (≈ 0.333 µM).
With `COc1c(N2C[C@@H]3CCCN[C@@H]3C2)c(F)cc2c(=O)c(C(=O)O)cn(C3CC3)c12` [MOXIFLOXACIN], in assay [1], the MIC was determined as 0.063 µg/mL (≈ 0.157 µM), the MIC50 was 0.06 µg/mL (≈ 0.149 µM) and the MIC90 was found to be 0.06 µg/mL (≈ 0.149 µM). In assay [2], this compound had an MIC of 0.06 µg/mL (≈ 0.149 µM), an MIC50 of 0.06 µg/mL (≈ 0.149 µM) and an MIC90 of 0.12 µg/mL (≈ 0.299 µM).
In assay [1], `C[C@H]1COc2c(N3CCN(C)CC3)c(F)cc3c(=O)c(C(=O)O)cn1c23.C[C@H]1COc2c(N3CCN(C)CC3)c(F)cc3c(=O)c(C(=O)O)cn1c23.O` [LEVOFLOXACIN] came in with an MIC of 0.1 µg/mL, an MIC50 of 0.25 µg/mL and an MIC90 of 0.5 µg/mL. In assay [2], this compound displayed an MIC of 0.012 µg/mL, an MIC50 of 1 µg/mL and an MIC90 of 1 µg/mL.
`O=C(O)c1cn(C2CC2)c2cc(N3CCNCC3)c(F)cc2c1=O` [CIPROFLOXACIN]: in assay [1], the MIC50 came out at 1 µg/mL (≈ 3.02 µM) and the MIC90 was 1 µg/mL (≈ 3.02 µM). In assay [2], this compound registered an MIC50 of 4 µg/mL (≈ 12.1 µM) and an MIC90 of 4 µg/mL (≈ 12.1 µM).
On to `CN1C(=O)C2CC3C4Nc5ccc(Cl)cc5C(C)(C)C4CN3C2N(C)C1=O` (stereo not given), for which, in assay [1], the MIC50 amounted to 0.032 µg/mL (≈ 0.0823 µM) and the MIC90 is 0.06 µg/mL (≈ 0.154 µM). Further, in assay [2], the MIC was 0.001 µg/mL (≈ 0.00257 µM), the MIC50 was 0.001 µg/mL (≈ 0.00257 µM) and the MIC90 was determined as 0.016 µg/mL (≈ 0.0411 µM).
In assay [2], `CO/N=C1\CN(c2nc3c(cc2F)c(=O)c(C(=O)O)cn3C2CC2)CC1CN` (stereo not given) [GEMIFLOXACIN] came in with an MIC50 of 0.032 µg/mL (≈ 0.0822 µM) and an MIC90 of 0.125 µg/mL (≈ 0.321 µM).
On to `CN(C)[C@@H]1C(O)=C(C(N)=O)C(=O)[C@@]2(O)C(O)=C3C(=O)c4c(O)cccc4[C@@](C)(O)[C@H]3C[C@@H]12` [TETRACYCLINE], for which the results for the MIC50 in assay [1] and in assay [2] were 8 µg/mL (≈ 18 µM) and 1 µg/mL (≈ 2.25 µM), respectively. The MIC90 is 8 µg/mL (≈ 18 µM) in assay [1] and 1 µg/mL (≈ 2.25 µM) in assay [2].
In assay [2], `CC[C@H]1OC(=O)[C@H](C)[C@@H](O[C@H]2C[C@@](C)(OC)[C@@H](O)[C@H](C)O2)[C@H](C)[C@@H](O[C@@H]2O[C@H](C)C[C@H](N(C)C)[C@H]2O)[C@](C)(O)C[C@@H](C)CN(C)[C@H](C)[C@@H](O)[C@]1(C)O` [AZITHROMYCIN] yielded an MIC of 0.001 µg/mL (≈ 0.00134 µM), an MIC50 of 0.001 µg/mL (≈ 0.00134 µM) and an MIC90 of 0.016 µg/mL (≈ 0.0214 µM).
With `CCC[C@@H]1C[C@@H](C(=O)N[C@@H]([C@H]2O[C@H](SC)[C@H](O)[C@@H](O)[C@H]2O)[C@H](C)Cl)N(C)C1` [CLINDAMYCIN], in assay [1], the MIC50 came to 0.032 µg/mL (≈ 0.0753 µM) and the MIC90 was found to be 0.032 µg/mL (≈ 0.0753 µM).
In assay [1], `C[C@H]1c2cccc(O)c2C(=O)C2=C(O)[C@]3(O)C(=O)C(C(N)=O)=C(O)[C@@H](N(C)C)[C@@H]3[C@@H](O)[C@@H]21.O` [DOXYCYCLINE] gave an MIC50 of 2 µg/mL and an MIC90 of 2 µg/mL. In assay [2], this compound showed an MIC50 of 0.25 µg/mL and an MIC90 of 0.25 µg/mL.

(Values after ChEMBL document CHEMBL1649263, “In vitro activity of a new quinoline derivative, ER-2, against clinical isolates of Mycoplasma pneumoniae and Mycoplasma hominis” (2009).)
